Data reported in US10093630B2, “Pyrazole compounds and methods of making and using same” (ABIDE THERAPEUTICS, INC., priority 2014, dated 2018).
Where two headings read alike, the source gives them in different places.

Tests used:
Test in all cases: In vitro competitive activity-based protein profiling (gel-based, FP-Rh or HT-01 probe)
Format in all cases: biochemical
FAAH = target: T1, FAAH (Mus musculus, UniProt O08914); details: for inhibition at 1 µM: 1 μM inhibitor, read-out: % Inhibition at 1 μM, B = FAAH; for inhibition at 10 µM: 10 μM inhibitor, read-out: % Inhibition at 10 μM, B = FAAH; for IC50: mouse brain membrane fraction or cell lysates, 30 min preincubation at 37° C., read-out: Mouse (IC50 value, nM) FAAH
T1 construct: Proteomes (mouse brain membrane fraction or cell lysates); from tissue; host or cells: mouse brain membrane fraction (or cell lysates, not specified)
T1 sequence (O08914 1-579): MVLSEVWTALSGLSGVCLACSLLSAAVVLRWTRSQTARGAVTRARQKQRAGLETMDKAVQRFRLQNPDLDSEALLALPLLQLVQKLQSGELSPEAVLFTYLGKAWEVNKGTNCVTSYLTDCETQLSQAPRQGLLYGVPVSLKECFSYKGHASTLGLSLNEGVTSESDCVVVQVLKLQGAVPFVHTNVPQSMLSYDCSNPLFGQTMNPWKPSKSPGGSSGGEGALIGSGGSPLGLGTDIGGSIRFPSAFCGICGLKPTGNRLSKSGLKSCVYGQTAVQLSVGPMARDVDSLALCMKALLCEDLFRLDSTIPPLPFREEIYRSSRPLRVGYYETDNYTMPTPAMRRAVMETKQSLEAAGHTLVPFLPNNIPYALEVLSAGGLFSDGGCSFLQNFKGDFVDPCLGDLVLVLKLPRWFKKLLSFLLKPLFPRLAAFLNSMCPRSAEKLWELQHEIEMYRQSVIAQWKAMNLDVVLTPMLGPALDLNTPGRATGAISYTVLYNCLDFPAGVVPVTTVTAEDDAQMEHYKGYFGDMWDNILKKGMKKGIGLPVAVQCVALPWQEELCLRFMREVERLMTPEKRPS
How it was run: (§1)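 Mouse brain membrane or cell lysate proteomes (1.0 mg/mL) preincubated with inhibitors 30 min at 37° C, then labelled with FP-Rh or HT-01 for 30 min at 37° C. After SDS-PAGE, activity quantified from fluorescent band intensity.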

PLA2G7 = target: T2, PLA2G7 (Mus musculus, UniProt Q60963); details: for inhibition at 1 µM: 1 μM inhibitor, read-out: % Inhibition at 1 μM, D = PLA2G7; for inhibition at 10 µM: 10 μM inhibitor, read-out: % Inhibition at 10 μM, D = PLA2G7; for IC50: mouse brain membrane fraction or cell lysates, 30 min preincubation at 37° C.
T2 construct: Proteomes (mouse brain membrane fraction or cell lysates); from tissue; host or cells: mouse brain membrane fraction (or cell lysates, not specified)
T2 sequence (Q60963 22-440): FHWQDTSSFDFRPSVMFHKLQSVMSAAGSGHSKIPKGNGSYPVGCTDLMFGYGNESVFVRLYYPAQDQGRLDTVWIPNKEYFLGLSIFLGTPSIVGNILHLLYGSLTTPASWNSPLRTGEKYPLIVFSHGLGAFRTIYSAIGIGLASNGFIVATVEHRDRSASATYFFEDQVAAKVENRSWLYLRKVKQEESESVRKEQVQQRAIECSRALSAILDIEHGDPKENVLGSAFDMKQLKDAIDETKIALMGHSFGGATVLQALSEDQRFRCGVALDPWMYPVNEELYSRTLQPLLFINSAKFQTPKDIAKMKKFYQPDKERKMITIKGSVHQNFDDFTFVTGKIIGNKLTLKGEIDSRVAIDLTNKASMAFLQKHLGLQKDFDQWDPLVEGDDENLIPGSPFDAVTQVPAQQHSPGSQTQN
How it was run: as §1

MAGL = target: T3, MAGL (Mus musculus, UniProt O35678); details: for inhibition at 1 µM: 1 μM inhibitor; for inhibition at 10 µM: 10 μM inhibitor; for IC50: mouse brain membrane fraction or cell lysates, 30 min preincubation at 37° C., read-out: Mouse (IC50 value, nM) MAGL
T3 construct: Proteomes (mouse brain membrane fraction or cell lysates); from tissue; host or cells: mouse brain membrane fraction (or cell lysates, not specified)
T3 sequence (O35678 1-303): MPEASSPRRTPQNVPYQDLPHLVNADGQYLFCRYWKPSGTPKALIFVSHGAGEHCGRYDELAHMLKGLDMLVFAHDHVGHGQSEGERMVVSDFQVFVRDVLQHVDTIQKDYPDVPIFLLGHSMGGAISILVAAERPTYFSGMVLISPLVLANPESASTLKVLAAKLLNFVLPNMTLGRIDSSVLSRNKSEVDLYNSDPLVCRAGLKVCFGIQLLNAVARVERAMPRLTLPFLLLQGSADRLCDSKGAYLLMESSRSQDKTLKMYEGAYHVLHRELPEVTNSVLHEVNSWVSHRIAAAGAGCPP
How it was run: as §1

ABHD6 = target: T4, ABHD6 (Mus musculus, UniProt Q8R2Y0); details: for inhibition at 1 µM: 1 μM inhibitor, read-out: % Inhibition at 1 μM, C = ABHD6; for inhibition at 10 µM: 10 μM inhibitor, read-out: % Inhibition at 10 μM, C = ABHD6; for IC50: mouse brain membrane fraction or cell lysates, 30 min preincubation at 37° C., read-out: Mouse (IC50 value, nM) ABHD6
T4 construct: Proteomes (mouse brain membrane fraction or cell lysates); from tissue; host or cells: mouse brain membrane fraction (or cell lysates, not specified)
T4 sequence (Q8R2Y0 1-336): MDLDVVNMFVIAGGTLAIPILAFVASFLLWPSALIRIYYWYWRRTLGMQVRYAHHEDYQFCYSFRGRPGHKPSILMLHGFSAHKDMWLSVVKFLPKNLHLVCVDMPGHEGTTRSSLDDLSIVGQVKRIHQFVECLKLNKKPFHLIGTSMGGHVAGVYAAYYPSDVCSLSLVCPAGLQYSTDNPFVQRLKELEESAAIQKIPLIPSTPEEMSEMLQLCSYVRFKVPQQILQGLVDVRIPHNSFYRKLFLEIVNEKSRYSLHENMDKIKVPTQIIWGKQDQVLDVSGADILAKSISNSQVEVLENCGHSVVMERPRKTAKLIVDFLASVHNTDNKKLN
How it was run: as §1

Row | Structure (SMILES) | inhibition at 1 µM (FAAH) | inhibition at 10 µM (FAAH) | IC50 (FAAH) | inhibition at 1 µM (PLA2G7) | inhibition at 10 µM (PLA2G7) | IC50 (PLA2G7) | inhibition at 1 µM (MAGL) | inhibition at 10 µM (MAGL) | IC50 (MAGL) | inhibition at 1 µM (ABHD6) | inhibition at 10 µM (ABHD6) | IC50 (ABHD6) | inhibition at 1 µM (FAAH; gel-based competitive ABPP) | inhibition at 1 µM (PLA2G7; gel-based competitive ABPP) | inhibition at 1 µM (MAGL; gel-based competitive ABPP) | inhibition at 1 µM (ABHD6; gel-based competitive ABPP)
1 | O=C(N1CCN(c2ccccc2Cl)CC1)n1cc(C(F)(F)F)cn1 [Example 227, (4-(2-Chlorophenyl)piperazin-1-yl)(4-(trifluoromethyl)-1H-pyrazol-1-yl)methanone] | > 75% | > 75% | < 100 nM | > 75% | > 75% | < 100 nM | > 75% | > 75% | < 100 nM | > 75% | > 75% | < 100 nM | – | – | – | –
2 | O=C(c1cnn(C(=O)N2CCN(Cc3ccncn3)CC2)c1)N1CCCCC1 [Example 73, Piperidin-1-yl(1-(4-(pyrimidin-4-ylmethyl)piperazine-1-carbonyl)-1H-pyrazol-4-yl)methanone] | < 25% | 25 to 75% | – | > 75% | > 75% | – | < 25% | < 25% | – | < 25% | > 75% | – | – | – | – | –
3 | CCN(Cc1cccc(N2CCOCC2)c1)C(=O)n1cc(C#N)cn1 [Example 242, 4-Cyano-N-ethyl-N-(3-morpholinobenzyl)-1H-pyrazole-1-carboxamide] | > 75% | – | – | < 25% | – | – | > 75% | – | – | 25 to 75% | – | – | – | – | – | –
4 | CCN(Cc1ccc(Cl)cc1)C(=O)n1cc(Cl)cn1 [Example 131, 4-chloro-N-(4-chlorobenzyl)-N-ethyl-1H-pyrazole-1-carboxamide] | > 75% | – | < 100 nM | < 25% | – | – | < 25% | – | > 1000 nM | < 25% | – | > 1000 nM | – | – | – | –
5 | O=C(N1CCN(Cc2ccccc2Cl)CC1)n1cc(C(F)(F)F)cn1 [Example 275, (4-(2-Chlorobenzyl)piperazin-1-yl)(4-(trifluoromethyl)-1H-pyrazol-1-yl)methanone] | – | – | < 100 nM | – | – | < 100 nM | – | – | < 100 nM | – | – | < 100 nM | > 75% | > 75% | > 75% | > 75%
6 | Cc1cnn(C(=O)N2CCN(C(=O)c3ccccc3)CC2)c1 [Example 164, (4-Benzoylpiperazin-1-yl)(4-methyl-1H-pyrazol-1-yl)methanone] | < 25% | < 25% | – | < 25% | > 75% | – | < 25% | 25 to 75% | – | < 25% | < 25% | – | – | – | – | –
7 | N#Cc1cnn(C(=O)N2CCN(Cc3ccc(-c4ccccc4)cc3)CC2)c1 [Example 24, 1-(4-([1,1′-Biphenyl]-4-ylmethyl)piperazine-1-carbonyl)-1H-pyrazole-4-carbonitrile] | > 75% | > 75% | – | > 75% | > 75% | – | > 75% | > 75% | – | > 75% | > 75% | – | – | – | – | –
8 | N#Cc1cnn(C(=O)N2CCN(Cc3ccc(-c4ccccc4)cc3Cl)CC2)c1 [Example 140, 1-(4-((3-chlorobiphenyl-4-yl)methyl)piperazine-1-carbonyl)-1H-pyrazole-4-carbonitrile] | > 75% | > 75% | – | > 75% | > 75% | – | > 75% | > 75% | – | > 75% | > 75% | – | – | – | – | –
9 | O=C(N1CCN(Cc2cncnc2)CC1)n1cc(-c2ccccc2)cn1 [Example 64, (4-Phenyl-1H-pyrazol-1-yl)(4-(pyrimidin-5-ylmethyl)piperazin-1-yl)methanone] | – | < 25% | – | > 75% | > 75% | – | – | < 25% | – | > 75% | > 75% | – | – | – | – | –
10 | O=C(c1cnn(C(=O)N2CCN(Cc3ccc4c(c3)OCO4)CC2)c1)N1CCOCC1 [Example 51, (4-(Benzo[d][1,3]dioxol-5-ylmethyl)piperazin-1-yl)(4-(morpholine-4-carbonyl)-1H-pyrazol-1-yl)methanone] | < 25% | > 75% | – | < 25% | > 75% | – | < 25% | > 75% | – | > 75% | > 75% | 100 to 1000 nM | – | – | – | –
11 | O=C(N1CCN(Cc2ccc(N3CCCC3)cc2)CC1)n1cc(Cl)cn1 [Example 212, (4-Chloro-1H-pyrazol-1-yl)(4-(4-(pyrrolidin-1-yl)benzyl)piperazin-1-yl)methanone] | > 75% | > 75% | 100 to 1000 nM | < 25% | > 75% | – | > 75% | > 75% | < 100 nM | > 75% | > 75% | 100 to 1000 nM | – | – | – | –
12 | CCN(Cc1cccc(C)c1)C(=O)n1cc(Cl)cn1 [Example 135, 4-Chloro-N-ethyl-N-(3-methylbenzyl)-1H-pyrazole-1-carboxamide] | > 75% | > 75% | 100 to 1000 nM | < 25% | < 25% | – | 25 to 75% | > 75% | > 1000 nM | < 25% | > 75% | > 1000 nM | – | – | – | –
13 | CCN(Cc1ccc(C)cc1)C(=O)n1cc(C#N)cn1 [Example 255, 4-Cyano-N-ethyl-N-(4-methylbenzyl)-1H-pyrazole-1-carboxamide] | – | – | < 100 nM | – | – | > 1000 nM | – | – | 100 to 1000 nM | – | – | > 1000 nM | > 75% | < 25% | > 75% | < 25%
14 | O=C(N1CCN(Cc2ccc(C(F)(F)F)cc2N2CCCC2)CC1)n1cc(-c2ccccc2C(F)(F)F)cn1 [Example 115, (4-(2-(Pyrrolidin-1-yl)-4-(trifluoromethyl)benzyl)piperazin-1-yl)(4-(2-(trifluoromethyl)phenyl)-1H-pyrazol-1-yl)methanone] | < 25% | 25 to 75% | – | 25 to 75% | > 75% | – | < 25% | 25 to 75% | – | > 75% | 25 to 75% | 100 to 1000 nM | – | – | – | –
